# ChEMBL document CHEMBL1255229, “Novel antimicrobial peptides that exhibit activity against select agents and other drug resistant bacteria” (2010)
# Starred links: 1 amine or outer side, 2 acyl side, 3 side chain; linkers in the order of their positions; H or OH if unused. Non-standard residues stand in square brackets, D forms with d. Residues, ends and D or L forms follow the SMILES beside them. ξ: configuration not given here. Pro(3ξ,4ξ-(CH2)4) = O=C(O)[C@H]1NCC2CCCCC21; Oic = O=C(O)[C@@H]1C[C@@H]2CCCC[C@@H]2N1; X1 = O=C([C@@H]1CN([*:1])C2CCCCC21)[*:2]; X3 = O=C(C[C@H]1C2CCCCC2CN1[*:1])[*:2]; Tic = O=C(O)[C@@H]1Cc2ccccc2CN1; Dap = NC[C@H](N)C(=O)O
# Legend:
# Format in all cases: functional
# [1] = test system: Burkholderia mallei; test: Antimicrobial activity against Burkholderia mallei ATCC 23444 after 24 hrs; conditions: ATCC 23444, 24 h
# [2] = test system: Brucella melitensis; test: Antimicrobial activity against Brucella melitensis 16 M after 24 hrs
# [3] = test system: Burkholderia pseudomallei; test: Antimicrobial activity against Burkholderia pseudomallei BURK003(1026b) after 24 hrs
# [4] = test system: Francisella tularensis; test: Antimicrobial activity against Francisella tularensis SCHU-S4 after 24 hrs; conditions: SCHU-S4, 24 h
# [5] = test system: Brucella suis; test: Antimicrobial activity against Brucella suis ATCC 23445 after 24 hrs; conditions: ATCC 23445, 24 h
# [6] = test system: Acinetobacter baumannii; test: Antimicrobial activity against Acinetobacter baumannii WRAIR after 24 hrs
# [7] = test system: Acinetobacter baumannii; test: Antimicrobial activity against Acinetobacter baumannii ATCC 19606 after 24 hrs; conditions: ATCC 19606 = CIP 70.34 = JCM 6841, 24 h
# [8] = test system: Bacillus anthracis; test: Antimicrobial activity against Bacillus anthracis Ames after 24 hrs
# [9] = test system: Brucella abortus; test: Antimicrobial activity against Brucella abortus 2308 after 24 hrs; conditions: Brucella abortus, 2308, 24 h
# [10] = test system: Yersinia pestis; test: Antimicrobial activity against Yersinia pestis CO92 after 24 hrs; conditions: CO92, 24 h
# [11] = test system: Staphylococcus aureus; test: Antimicrobial activity against methicillin-resistant Staphylococcus aureus ATCC 33591 after 24 hrs; conditions: ATCC 33591, 24 h
SMILES,MIC [1],MIC [2],MIC [3],MIC [4],MIC [5],MIC [6],MIC [7],MIC [8],MIC [9],MIC [10],MIC [11]
"CC(=O)N[C@@H](Cc1ccccc1)C(=O)N1Cc2ccccc2C[C@H]1C(=O)N1CC2CCCCC2[C@H]1C(=O)N[C@@H](CCCCN)C(=O)N1Cc2ccccc2C[C@H]1C(=O)N1CC2CCCCC2[C@H]1C(=O)N[C@@H](Cc1ccccc1)C(=O)N1Cc2ccccc2C[C@H]1C(=O)N1CC2CCCCC2[C@H]1C(=O)N[C@@H](CCCCN)C(=O)N1Cc2ccccc2C[C@H]1C(=O)N[C@@H](CCCCN)C(=O)N[C@@H](CCCCN)C(=O)N[C@@H](CCCCN)C(=O)N[C@@H](CCCCN)C(=O)N[C@@H](CCCCN)C(=O)N[C@@H](CCCCN)C(N)=O (stereo not given in full) (Ac-F[Tic][Pro(3ξ,4ξ-(CH2)4)]K[Tic][Pro(3ξ,4ξ-(CH2)4)]F[Tic][Pro(3ξ,4ξ-(CH2)4)]K[Tic]KKKKKK-NH2)",202 µM,202 µM,202 µM,202 µM,13 µM,6.3 µM,6.3 µM,0.75 µM,101 µM,101 µM,25.3 µM
"CC(=O)NCC(=O)N[C@@H](Cc1ccccc1)C(=O)N[C@@H](Cc1ccccc1)C(=O)N1CC2CCCCC2[C@H]1C(=O)NCC(=O)N[C@@H](CCCCN)C(=O)N[C@@H](Cc1ccccc1)C(=O)N1CC2CCCCC2[C@H]1C(=O)NCC(=O)N[C@@H](Cc1ccccc1)C(=O)N[C@@H](Cc1ccccc1)C(=O)N1CC2CCCCC2[C@@H]1CC(=O)N[C@@H](CCCCN)C(=O)N[C@@H](Cc1ccccc1)C(=O)N[C@@H](CCCCN)C(=O)N[C@@H](CCCCN)C(=O)N[C@@H](CCCCN)C(=O)N[C@@H](CCCCN)C(N)=O (stereo not given in full) (Ac-GFF[Pro(3ξ,4ξ-(CH2)4)]GKF[Pro(3ξ,4ξ-(CH2)4)]GFF[X3]KFKKKK-NH2)",208 µM,26 µM,208 µM,0.01 µM,26 µM,3.2 µM,3.2 µM,0.2 µM,26 µM,3.2 µM,208 µM
CC(=O)NCC(=O)N[C@@H](Cc1ccccc1)C(=O)N1Cc2ccccc2C[C@H]1C(=O)N1[C@H](C(=O)NCC(=O)N[C@@H](CCCCN)C(=O)N2Cc3ccccc3C[C@H]2C(=O)N2[C@H](C(=O)NCC(=O)N[C@@H](Cc3ccccc3)C(=O)N3Cc4ccccc4C[C@H]3C(=O)N3[C@H](C(=O)NCC(=O)N[C@@H](CCCCN)C(=O)N4Cc5ccccc5C[C@H]4C(=O)N[C@@H](CCCCN)C(=O)N[C@@H](CCCCN)C(=O)N[C@@H](CCCCN)C(=O)N[C@@H](CCCCN)C(N)=O)C[C@@H]4CCCC[C@@H]43)C[C@@H]3CCCC[C@@H]32)C[C@@H]2CCCC[C@@H]21 (Ac-GF[Tic][Oic]GK[Tic][Oic]GF[Tic][Oic]GK[Tic]KKKK-NH2),205 µM,205 µM,205 µM,100 µM,205 µM,3.2 µM,3.2 µM,12.8 µM,205 µM,205 µM,205 µM
CC(=O)NCC(=O)N[C@@H](Cc1ccccc1)C(=O)N1Cc2ccccc2C[C@H]1C(=O)N1[C@H](C(=O)NCC(=O)N[C@@H](CN)C(=O)N2Cc3ccccc3C[C@H]2C(=O)N2[C@H](C(=O)NCC(=O)N[C@@H](Cc3ccccc3)C(=O)N3Cc4ccccc4C[C@H]3C(=O)N3[C@H](C(=O)NCC(=O)N[C@@H](CN)C(=O)N4Cc5ccccc5C[C@H]4C(=O)N[C@@H](CN)C(=O)N[C@@H](CN)C(=O)N[C@@H](CN)C(=O)N[C@@H](CN)C(N)=O)C[C@@H]4CCCC[C@@H]43)C[C@@H]3CCCC[C@@H]32)C[C@@H]2CCCC[C@@H]21 (Ac-GF[Tic][Oic]G[Dap][Tic][Oic]GF[Tic][Oic]G[Dap][Tic][Dap][Dap][Dap][Dap]-NH2),228 µM,228 µM,228 µM,228 µM,228 µM,3.6 µM,3.6 µM,14.8 µM,228 µM,228 µM,114 µM
CC(=O)NCC(=O)N[C@@H](Cc1ccccc1)C(=O)N1Cc2ccccc2C[C@H]1C(=O)N1C[C@@H](C(=O)NCC(=O)N[C@@H](CCCCN)C(=O)N2Cc3ccccc3C[C@H]2C(=O)N2C[C@@H](C(=O)NCC(=O)N[C@@H](Cc3ccccc3)C(=O)N3Cc4ccccc4C[C@H]3C(=O)N3C[C@@H](C(=O)NCC(=O)N[C@@H](CCCCN)C(=O)N4Cc5ccccc5C[C@H]4C(=O)N[C@@H](CCCCN)C(=O)N[C@@H](CCCCN)C(=O)N[C@@H](CCCCN)C(N)=O)C4CCCCC43)C3CCCCC32)C2CCCCC21 (stereo not given in full) (Ac-GF[Tic][X1]GK[Tic][X1]GF[Tic][X1]GK[Tic]KKK-NH2),0.02 µM,54 µM,0.02 µM,0.02 µM,> 216 µM,3.4 µM,6.7 µM,27 µM,27 µM,27 µM,54 µM
